Measured values published in patent US6229011A, “N-aroylphenylalanine derivative VCAM-1 inhibitors” (Hoffman-La Roche Inc., priority 1998, dated 2001).

Tests used:
VLA-4 (α4β1 integrin) [1] = biological target: T1, VLA-4 (α4β1 integrin) (Homo sapiens, UniProt P05556+P13612); experiment: cell-based; assay type: cell-based
Description: Ramos (VLA-4)/VCAM-1 Cell-Based Screening Assay Protocol
Calcein-AM was purchased from Molecular Probes Inc.
VLA-4 (α4β1 integrin) antagonist activity, defined as ability to compete with cell-surface VLA-4 for binding to immobilized VCAM-1, was quantitated using a Ramos-VCAM-1 cell adhesion assay. Ramos cells bearing cell-surface VLA-4, were labeled with a fluorescent dye (Calcein-AM) and allowed to bind VCAM-1 in the presence or absence of test compounds.
Initially, this entailed coating 96 well plates (Nunc Maxisorp) with recombinant human VCAM-1 (100 ng in 100 μl PBS), sealing each plate and allowing the plates to stand at 4° C. for Å 18 hr. The VCAM-coated plates were subsequently washed twice with 0.05% Tween-20 in PBS, and then blocked for 1 hr (room temperature) with 200 μl of Blocking Buffer (1% BSA/0.02% thimerosal) to reduce non-specific binding. Following the incubation with Blocking Buffer, plates were inverted, blotted and the remaining buffer aspirated. Each plate was then washed with 300 μl PBS, inverted and the remaining PBS aspirated.
Test compounds were dissolved in 100% DMSO and then diluted 1:25 in VCAM Cell Adhesion Assay Buffer (4 mM CaCl2, 4 mM MgCl2 in 50 mM TRIS-HCl, pH 7.5) (final DMSO=4%). […] 100 μl/well of each dilution was added to the VCAM-coated plates, followed by 100 μl of Ramos cells (200,000 cells/well in 1% BSA/PBS). […] Plates were inverted to remove non-adherent cells, blotted and 300 μl/well PBS added. Plates were again inverted, blotted and the remaining buffer gently aspirated. 100 μl Lysis Buffer (0.1% SDS in 50 mM TRIS-HCl, pH 8.5) was added to each well and agitated for 2 min on a rotary shaking platform.

VLA-4 (α4β1 integrin) [2] = biological target: T1, VLA-4 (α4β1 integrin); experiment: biochemical; assay type: binding
Experimental: VLA-4/VCAM-1 Screening Assay
VLA-4 antagonist activity, defined as ability to compete for binding to immobilized VCAM-1, was quantitated using a solid-phase, dual antibody ELISA. VLA-4 (α4β1 integrin) bound to VCAM-1 is detected by a complex of anti-integrin β1 antibody: HRP-conjugated anti-mouse IgG: chromogenic substrate (K-Blue). Initially, this entailed coating 96 well plates (Nunc Maxisorp) with recombinant human VCAM-1 (0.4 μg in 100 μl PBS), sealing each plate and then allowing the plates to stand at 4° C. for Å 18 hr. […] On the day of assay, all plates are washed twice with VCAM Assay Buffer (200 μl/well of 50 mM Tris-HCl. 100 mM NaCl, 1 mM MnCl2), 0.05% Tween 20; pH 7.4). Test compounds are dissolved in 100% DMSO and then diluted 1:20 in VCAM Assay Buffer supplemented with 1 mg/mL BSA (i.e., final DMSO=5%). […] 100 μl per well of each dilution is added to the VCAM-coated plates, followed by 10 μl of Ramos cell-derived VLA-4. These plates are sequentially mixed on a platform shaker for 1 min, incubated for 2 hr at 37° C., and then washed four times with 200 μl/well VCAM Assay Buffer. 100 μl of mouse anti-human integrin β1 antibody is added to each well (0.6 μg/mL in VCAM Assay Buffer+1 mg/mL BSA) and allowed to incubate for 1 hr at 37° C. At the conclusion of this incubation period, all plates are washed four times with VCAM Assay Buffer (200 μl/well). A corresponding second antibody, HRP-conjugated goat anti-mouse IgG (100 μl per well @1:800 dilution in VCAM Assay Buffer+1 mg/mL BSA), is then added to each well, followed by a 1 hr incubation at room temperature and concluded by three washes (200 μl/well) with VCAM Assay Buffer. Color development is initiated by addition of 100 μl K-Blue per well (15 min incubation, room temp) and terminated by addition of 100 μl Red Stop Buffer per well. […] Results are calculated as % inhibition of total binding (i.e. VLA-4+VCAM-1 in the absence of test compound).

VLA-4 = VLA-4 (Homo sapiens, UniProt P05556+P13612); experiment: IC50 of table 7, assay not given; conditions: table 7, Examples 79-84; assay not stated
Sequence of VLA-4 (P13612 34-1032): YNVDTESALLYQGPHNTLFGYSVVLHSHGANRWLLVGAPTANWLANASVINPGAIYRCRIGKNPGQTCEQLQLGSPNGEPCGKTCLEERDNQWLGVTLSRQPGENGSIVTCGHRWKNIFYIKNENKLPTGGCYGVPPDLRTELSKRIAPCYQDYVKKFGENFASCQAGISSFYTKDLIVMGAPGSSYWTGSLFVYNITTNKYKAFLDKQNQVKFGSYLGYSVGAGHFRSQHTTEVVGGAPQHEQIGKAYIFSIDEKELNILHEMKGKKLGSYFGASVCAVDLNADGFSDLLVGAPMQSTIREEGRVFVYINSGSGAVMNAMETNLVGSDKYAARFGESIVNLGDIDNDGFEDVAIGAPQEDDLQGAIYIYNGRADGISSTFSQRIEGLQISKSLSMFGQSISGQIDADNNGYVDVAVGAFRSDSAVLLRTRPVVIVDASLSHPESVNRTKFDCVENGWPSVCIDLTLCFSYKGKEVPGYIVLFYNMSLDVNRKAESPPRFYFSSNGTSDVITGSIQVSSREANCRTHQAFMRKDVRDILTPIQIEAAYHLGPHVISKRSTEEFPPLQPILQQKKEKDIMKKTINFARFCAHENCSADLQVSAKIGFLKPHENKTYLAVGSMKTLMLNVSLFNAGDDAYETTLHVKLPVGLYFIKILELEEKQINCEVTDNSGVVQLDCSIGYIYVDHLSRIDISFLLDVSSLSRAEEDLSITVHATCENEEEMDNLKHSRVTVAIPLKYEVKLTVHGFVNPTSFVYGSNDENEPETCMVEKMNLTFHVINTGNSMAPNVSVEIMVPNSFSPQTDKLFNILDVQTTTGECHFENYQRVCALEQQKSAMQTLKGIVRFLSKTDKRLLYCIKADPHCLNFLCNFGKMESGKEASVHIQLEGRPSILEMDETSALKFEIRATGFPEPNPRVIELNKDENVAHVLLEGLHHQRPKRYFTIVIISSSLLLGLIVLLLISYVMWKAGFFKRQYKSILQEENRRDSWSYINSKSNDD
Sequence of VLA-4 (P05556 21-798): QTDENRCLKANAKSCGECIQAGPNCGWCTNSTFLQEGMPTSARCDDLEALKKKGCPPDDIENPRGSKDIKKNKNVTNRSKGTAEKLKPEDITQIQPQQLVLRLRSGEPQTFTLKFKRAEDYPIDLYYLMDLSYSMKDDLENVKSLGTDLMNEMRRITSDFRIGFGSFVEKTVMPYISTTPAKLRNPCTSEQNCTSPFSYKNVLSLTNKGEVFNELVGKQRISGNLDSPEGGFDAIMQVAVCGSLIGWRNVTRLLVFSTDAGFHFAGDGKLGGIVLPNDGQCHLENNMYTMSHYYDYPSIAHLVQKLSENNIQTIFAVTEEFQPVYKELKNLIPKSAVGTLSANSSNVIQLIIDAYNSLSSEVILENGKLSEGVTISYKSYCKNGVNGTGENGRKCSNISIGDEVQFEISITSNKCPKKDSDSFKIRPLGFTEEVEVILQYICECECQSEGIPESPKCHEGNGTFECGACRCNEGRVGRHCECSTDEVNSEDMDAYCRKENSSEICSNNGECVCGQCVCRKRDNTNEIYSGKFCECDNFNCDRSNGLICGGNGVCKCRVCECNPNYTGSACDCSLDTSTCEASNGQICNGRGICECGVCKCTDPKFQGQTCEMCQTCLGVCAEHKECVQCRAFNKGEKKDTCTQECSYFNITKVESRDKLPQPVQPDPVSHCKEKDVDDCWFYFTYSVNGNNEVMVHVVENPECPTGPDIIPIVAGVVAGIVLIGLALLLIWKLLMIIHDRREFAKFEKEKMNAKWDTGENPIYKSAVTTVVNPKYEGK

[3] = table 14, Ramos cells binding to immobilized VCAM-1, read-out: Ramos IC50
[4] = table 13, competition for binding of Ramos cell-derived VLA-4 to immobilized VCAM-1, read-out: ELISA IC50
[5] = table 9, Examples 97-102, assay not given, values equal ELISA table 13, read-out: IC50
[6] = table 11, Examples 151-155, assay not given, values equal Ramos table 14, read-out: IC50
[7] = table 12, Examples 156-160, assay not given, values equal Ramos table 14, read-out: IC50

T1 sequence (P13612 34-1032): as the sequence (P13612 34-1032) above
T1 sequence (P05556 21-798): as the sequence (P05556 21-798) above

Compound	IC50 (VLA-4 (α4β1 integrin) [1]; [3]) [nM]	IC50 (VLA-4 (α4β1 integrin) [2]; [4]) [nM]	other results
4-[(2S,4R)-3-Acetyl-2-phenyl-4-(3-pyridinylmethyl)-5-oxo-1-imidazolinyl]-N- [(2-chloro-6-methylphenyl)carbonyl]-L-phenylalanine and 4-[(2R,4R)-3-acetyl-2-phenyl-4-(3-pyridinylmethyl)-5-oxo-1-imidazolinyl)-N-[(2-chloro-6-methylphenyl)carbonyl]-L-phenylalanine [Example 171]	13.5	–	–
O=C(Nc1ccc(C[C@H](NC(=O)c2cccc3ccccc23)C(=O)O)cc1)c1c(Cl)cccc1Cl [Example 15]	2.6	5.9	–
O=C(Nc1ccc(C[C@H](NC(=O)c2c(F)cccc2C(F)(F)F)C(=O)O)cc1)c1c(Cl)cccc1Cl [Example 16]	–	0.44	–
CC(C)(C)c1ccccc1C(=O)N[C@@H](Cc1ccc(NC(=O)c2c(Cl)cccc2Cl)cc1)C(=O)O [Example 17]	–	1.85	–
COc1ccc(C(=O)N[C@@H](Cc2ccc(NC(=O)c3c(Cl)cccc3Cl)cc2)C(=O)O)c(Cl)c1 [Example 19]	–	1.87	–
O=C(N[C@@H](Cc1ccc(NC(=O)c2c(Cl)cccc2Cl)cc1)C(=O)O)c1cccc(Cl)c1Cl [Example 20]	1.63	–	–
Cc1cccc(C(=O)N[C@@H](Cc2ccc(NC(=O)c3c(Cl)cccc3Cl)cc2)C(=O)O)c1Cl [Example 21]	1.27	–	–
O=C(N[C@@H](Cc1ccc(NC(=O)c2c(Cl)cccc2Cl)cc1)C(=O)O)c1ccc(Br)cc1Cl [Example 22]	1.32	–	–
Cc1ccc(Cl)c(C(=O)N[C@@H](Cc2ccc(NC(=O)c3c(Cl)cccc3Cl)cc2)C(=O)O)c1 [Example 23]	316	0.48	–
COc1ccc(Br)c(C(=O)N[C@@H](Cc2ccc(NC(=O)c3c(Cl)cccc3Cl)cc2)C(=O)O)c1 [Example 24]	20	–	–
CSc1ccccc1C(=O)N[C@@H](Cc1ccc(NC(=O)c2c(Cl)cccc2Cl)cc1)C(=O)O [Example 25]	103	0.42	–
O=C(N[C@@H](Cc1ccc(NC(=O)c2c(Cl)cccc2Cl)cc1)C(=O)O)c1ccccc1Cc1ccccc1 [Example 31, 4-[[(2,6-dichlorophenyl)carbonyl]amino]-N-[[(2-phenylmethyl)phenyl]carbonyl]-L-phenylalanine]	–	0.51	–
Cc1cccc(Cl)c1C(=O)N[C@@H](Cc1ccc(N2C(=O)[C@H](C)N(C)C2=O)cc1)C(=O)O [Example 79]	–	–	IC50 (VLA-4): 53 nM
Cc1cccc(Cl)c1C(=O)N[C@@H](Cc1ccc(N2C(=O)[C@H](C(C)C)N(C)C2=O)cc1)C(=O)O [Example 80]	–	–	IC50 (VLA-4): 24 nM
Cc1cccc(Cl)c1C(=O)N[C@@H](Cc1ccc(N2C(=O)[C@@H](CC(C)C)N(C)C2=O)cc1)C(=O)O [Example 82]	–	–	IC50 (VLA-4): 56 nM
Cc1cccc(Cl)c1C(=O)NC(Cc1ccc(N2C(=O)C3Cc4ccccc4CN3C2=O)cc1)C(=O)O (stereo not shown) [Example 83]	–	–	IC50 (VLA-4): 72 nM
Cc1cccc(Cl)c1C(=O)N[C@@H](Cc1ccc(N2C(=O)[C@H](Cc3ccccc3)N(C)C2=O)cc1)C(=O)O [Example 84]	–	–	IC50 (VLA-4): 73 nM
CCc1cccc(C)c1C(=O)N[C@@H](Cc1ccc(NC(=O)c2c(Cl)cccc2Cl)cc1)C(=O)O [Example 92]	255	0.42	IC50 (VLA-4 (α4β1 integrin) [1]; table 8, Examples 90-95, read-out: IC50 Ramos): 10 nM
CC(=O)N1[C@H](CC(C)C)C(=O)N(c2ccc(C[C@H](NC(=O)c3c(C)cccc3Cl)C(=O)O)cc2)[C@H]1c1ccc(O)cc1 [Example 97]	–	–	IC50 (VLA-4 (α4β1 integrin) [2]; [5]): 0.44 nM
CC(=O)N1[C@H](CC(C)C)C(=O)N(c2ccc(C[C@H](NC(=O)c3c(C)cccc3Cl)C(=O)O)cc2)[C@@H]1c1ccc(O)cc1 [Example 98]	–	–	IC50 (VLA-4 (α4β1 integrin) [2]; [5]): 2.35 nM
CC(=O)N1CN(c2ccc(C[C@H](NC(=O)c3c(C)cccc3Cl)C(=O)O)cc2)C(=O)[C@@H]1CC(C)C [Example 101]	–	–	IC50 (VLA-4 (α4β1 integrin) [2]; [5]): 9.9 nM
CC(=O)N1[C@H](CC(C)C)C(=O)N(c2ccc(C[C@H](NC(=O)c3c(C)cccc3Cl)C(=O)O)cc2)[C@@H]1C(C)(C)C [Example 102]	–	–	IC50 (VLA-4 (α4β1 integrin) [2]; [5]): 41 nM
Cc1cc(C[C@H](NC(=O)c2c(C)cccc2Cl)C(=O)O)ccc1NC(=O)c1cccc([N+](=O)[O-])c1 [Example 122]	430	0.67	–
Cc1cccc(Cl)c1C(=O)N[C@@H](Cc1ccc(NC(=O)c2sc(C(C)C)nc2C)cc1)C(=O)O [Example 152]	–	–	IC50 (VLA-4 (α4β1 integrin) [1]; [6]): 967 nM
Cc1cccc(Cl)c1C(=O)N[C@@H](Cc1ccc(NC(=O)c2c(C)noc2C)cc1)C(=O)O [Example 153]	–	–	IC50 (VLA-4 (α4β1 integrin) [1]; [6]): 975 nM
Cc1cccc(Cl)c1C(=O)N[C@@H](Cc1ccc(NC(=O)c2nn(-c3ccccc3)nc2C)cc1)C(=O)O [Example 154]	–	–	IC50 (VLA-4 (α4β1 integrin) [1]; [6]): 2470 nM
Cc1cc2ncc(C(=O)Nc3ccc(C[C@H](NC(=O)c4c(C)cccc4Cl)C(=O)O)cc3)c(C)n2n1 [Example 155]	–	–	IC50 (VLA-4 (α4β1 integrin) [1]; [6]): 644 nM
Cc1noc(C)c1C(=O)N[C@@H](Cc1ccc(NC(=O)c2c(Cl)cccc2Cl)cc1)C(=O)O [Example 158]	–	–	IC50 (VLA-4 (α4β1 integrin) [1]; [7]): 946 nM
Cc1nn(-c2ccccc2)nc1C(=O)N[C@@H](Cc1ccc(NC(=O)c2c(Cl)cccc2Cl)cc1)C(=O)O [Example 159]	–	–	IC50 (VLA-4 (α4β1 integrin) [1]; [7]): 988 nM

Continued, in another order:

IC50 (VLA-4 (α4β1 integrin) [1]; [3]) [nM]	IC50 (VLA-4 (α4β1 integrin) [2]; [4]) [nM]	Compound	other results
22	0.63	COc1ccc(Br)c(C(=O)N[C@@H](Cc2ccc(NC(=O)c3c(C)ccnc3C)cc2)C(=O)O)c1 [Example 108]	–
439	4.5	Cc1cc(C[C@H](NC(=O)c2c(C)cccc2Cl)C(=O)O)ccc1NC(=O)CCc1cccc(O)c1 [Example 120]	–
515	5.8	Cc1cc(C[C@H](NC(=O)c2c(C)cccc2Cl)C(=O)O)ccc1NC(=O)Cc1cccc(O)c1 [Example 121]	–
316	1.7	Cc1cc(C[C@H](NC(=O)c2c(C)cccc2Cl)C(=O)O)ccc1NC(=O)c1c(Cl)cccc1Cl [Example 123]	–
